The values that follow come from patent publication US8466181B2, “1,2,3-triazole-imidazole compounds” (Hoffmann-La Roche Inc., priority 2010, dated 2013).

In the test the target is T1, human GABA A receptor α5β3γ2 (GABA Aa5) (Homo sapiens, UniProt P18507+P31644).
T1 construct: expressed in transfected cells; host or cells: HEK293 cells, transiently transfected; membranes prepared
The test is described as follows: [3H]flumazenil competition binding, HEK293 cells expressing human receptors. The settings on record: displacement of [3H]flumazenil 0.5 nM; HEK293 transiently transfected human receptors; means of two determinations; read-out: hKi (GABA Aa5). The method, then:
The ability of compounds present invention to bind to GABA A receptor subtypes was determined by competition for [^3H]flumazenil (85 Ci/mmol; Roche) binding to HEK293 cells expressing rat (stably transfected) or human (transiently transfected) receptors of composition α1β2/3γ2, α2β3γ2, α3β3γ2 and α5β3γ2.
Cell pellets were suspended in Krebs-tris buffer (4.8 mM KCl, 1.2 mM CaCl2, 1.2 mM MgCl2, 120 mM NaCl, 15 mM Tris; pH 7.5; binding assay buffer), homogenized by polytron for ca. 20 sec on ice and centrifuged for 60 min at 4° C. (50000 g; Sorvall, rotor: SM24=20000 rpm). The cell pellets were resuspended in Krebs-tris buffer and homogenized by polytron for ca. 15 sec on ice. Protein was measured (Bradford method, Bio-Rad) and aliquots of 1 mL were prepared and stored at −80° C.
Assays were incubated to equilibrium for 1 hour at 4° C. and harvested onto GF/C uni-filters (Packard) by filtration using a Packard harvester and washing with ice-cold wash buffer (50 mM Tris; pH 7.5). After drying, filter-retained radioactivity was detected by liquid scintillation counting.
Ki values were calculated using Excel-Fit (Microsoft) and are the means of two determinations.
Representative test results, obtained by the above described assay measuring binding affinity to HEK293 cells expressing human (h) receptors, are shown in Table 1 below.
Take `CC(=O)c1ccc(-n2cnc(-c3c(C)nnn3-c3ccc(F)cc3)c2)cc1` [Example 32, 1-(4-{4-[3-(4-Fluoro-phenyl)-5-methyl-3H-[1,2,3]triazol-4-yl]-imidazol-1-yl}-phenyl)-ethanone]: the Ki amounted to 0.0259 µM.

On to `Cc1nnn(-c2ccc(F)cc2)c1-c1cn(-c2ccc(C(=O)NN3CCOCC3)cn2)cn1` [Example 45, 6-(4-(1-(4-Fluorophenyl)-4-methyl-1H-1,2,3-triazol-5-yl)-1H-imidazol-1-yl)-N-morpholinonicotinamide], for which the Ki amounted to 0.0694 µM.

Turning to `Cn1nnc(-c2ccccc2F)c1-c1cn(-c2ccc(C(=O)NC3CCOCC3)cn2)cn1` [Example 22, 6-(4-(4-(2-Fluorophenyl)-1-methyl-1H-1,2,3-triazol-5-yl)-1H-imidazol-1-yl)-N-(tetrahydro-2H-pyran-4-yl)nicotinamide], the Ki came out at 0.0433 µM.

On to `Cn1nnc(-c2ccc(F)cc2)c1-c1cn(-c2ccc(C(=O)N3CC4(COC4)C3)cc2)cn1` [Example 6, (4-{4-[5-(4-Fluoro-phenyl)-3-methyl-3H-[1,2,3]triazol-4-yl]-imidazol-1-yl}-phenyl)-(2-oxa-6-aza-spiro[3.3]hept-6-yl)-methanone], for which the Ki was determined as 0.0513 µM.

On to `Cn1nnc(-c2ccccc2F)c1-c1cn(-c2ccc(C(=O)NN3CCOCC3)cn2)cn1` [Example 28, 6-(4-(4-(2-Fluorophenyl)-1-methyl-1H-1,2,3-triazol-5-yl)-1H-imidazol-1-yl)-N-morpholinonicotinamide], for which the Ki was found to be 0.0324 µM.

Consider `Cc1nnn(-c2ccc(F)cc2)c1-c1cn(-c2ccc(C(=O)NC3(C)COC3)cn2)cn1` [Example 38, 6-(4-(1-(4-Fluorophenyl)-4-methyl-1H-1,2,3-triazol-5-yl)-1H-imidazol-1-yl)-N-(3-methyloxetan-3-yl)nicotinamide], for which the Ki stood at 0.0096 µM.

Take `Cn1nnc(-c2ccccc2F)c1-c1cn(-c2ccc(C(=O)NCC(C)(C)O)cn2)cn1` [Example 24, 6-(4-(4-(2-Fluorophenyl)-1-methyl-1H-1,2,3-triazol-5-yl)-1H-imidazol-1-yl)-N-(2-hydroxy-2-methylpropyl)nicotinamide]: the Ki is 0.0213 µM.

In the case of `Cc1nnn(-c2ccccc2F)c1-c1cn(-c2ccc(C(=O)NCC3CC3)cn2)cn1` [Example 53, N-(Cyclopropylmethyl)-6-(4-(1-(2-fluorophenyl)-4-methyl-1H-1,2,3-triazol-5-yl)-1H-imidazol-1-yl)nicotinamide], the Ki was determined as 0.0327 µM.

Regarding `Cn1nnc(-c2ccc(F)cc2)c1-c1cn(-c2ccc(C(=O)N3CC4(COC4)C3)cn2)cn1` [Example 14, (6-{4-[5-(4-Fluoro-phenyl)-3-methyl-3H-[1,2,3]triazol-4-yl]-imidazol-1-yl}-pyridin-3-yl)-(2-oxa-6-aza-spiro[3.3]hept-6-yl)-methanone], the Ki was 0.0376 µM.

Consider `Cn1nnc(-c2ccccc2F)c1-c1cn(-c2ccc(C(=O)N3CC4(COC4)C3)cn2)cn1` [Example 26, (6-(4-(4-(2-Fluorophenyl)-1-methyl-1H-1,2,3-triazol-5-yl)-1H-imidazol-1-yl)pyridin-3-yl)(2-oxa-6-azaspiro[3.3]heptan-6-yl)methanone], for which the Ki was 0.0665 µM.

Take `Cc1nnn(-c2ccc(F)cc2)c1-c1cn(-c2ccc(C(F)(F)F)cn2)cn1` [Example 34, 2-{4-[3-(4-Fluoro-phenyl)-5-methyl-3H-[1,2,3]triazol-4-yl]-imidazol-1-yl}-5-trifluoromethyl-pyridine]: the Ki was determined as 0.0456 µM.

Turning to `Cn1nnc(-c2ccccc2F)c1-c1cn(-c2ccc([N+](=O)[O-])cc2)cn1` [Example 9, 4-(2-Fluorophenyl)-1-methyl-5-(1-(4-nitrophenyl)-1H-imidazol-4-yl)-1H-1,2,3-triazole], the Ki was determined as 0.0763 µM.

In the case of `CC(C)NC(=O)c1ccc(-n2cnc(-c3c(-c4ccccc4Cl)nnn3C)c2)nc1` [Example 18, 6-(4-(4-(2-Chlorophenyl)-1-methyl-1H-1,2,3-triazol-5-yl)-1H-imidazol-1-yl)-N-isopropylnicotinamide], the Ki is 0.0751 µM.

Consider `Cn1nnc(-c2ccccc2F)c1-c1cn(-c2ccc(C(F)(F)F)cn2)cn1` [Example 30, 2-(4-(4-(2-Fluorophenyl)-1-methyl-1H-1,2,3-triazol-5-yl)-1H-imidazol-1-yl)-5-(trifluoromethyl)pyridine], for which the Ki was determined as 0.065 µM.

As for `Cn1nnc(-c2ccccc2Cl)c1-c1cn(-c2ccc(C(N)=O)cn2)cn1` [Example 19, 6-(4-(4-(2-Chlorophenyl)-1-methyl-1H-1,2,3-triazol-5-yl)-1H-imidazol-1-yl)nicotinamide], the Ki came out at 0.0662 µM.

Regarding `Cn1nnc(-c2ccccc2F)c1-c1cn(-c2ccc(C(F)(F)F)cc2)cn1` [Example 8, 4-(2-Fluorophenyl)-1-methyl-5-(1-(4-(trifluoromethyl)phenyl)-1H-imidazol-4-yl)-1H-1,2,3-triazole], the Ki turned out to be 0.0843 µM.

For `COC(=O)c1ccc(-n2cnc(-c3c(-c4ccc(F)cc4)nnn3C)c2)cc1` [Example 2, 4-{4-[5-(4-Fluoro-phenyl)-3-methyl-3H-[1,2,3]triazol-4-yl]-imidazol-1-yl}-benzoic acid methyl ester], the Ki was 0.0412 µM.

`Cc1nnn(-c2ccc(F)cc2)c1-c1cn(-c2ccc(C(=O)N3CCS(=O)(=O)CC3)cn2)cn1` [Example 44, (1,1-Dioxo-1,6-thiomorpholin-4-yl)-(6-{4-[3-(4-fluoro-phenyl)-5-methyl-3H-[1,2,3]triazol-4-yl]-imidazol-1-yl}-pyridin-3-yl)-methanone]: the Ki was determined as 0.029 µM.

Take `Cn1nnc(-c2ccc(F)cc2)c1-c1cn(-c2ccc(C(=O)NC3(C)COC3)cc2)cn1` [Example 5, 4-{4-[5-(4-Fluoro-phenyl)-3-methyl-3H-[1,2,3]triazol-4-yl]-imidazol-1-yl}-N-(3-methyl-oxetan-3-yl)-benzamide]: the Ki turned out to be 0.0238 µM.

`Cn1nnc(-c2ccccc2F)c1-c1cn(-c2ccc(C(=O)O)cn2)cn1` [Example 21, 6-(4-(4-(2-Fluorophenyl)-1-methyl-1H-1,2,3-triazol-5-yl)-1H-imidazol-1-yl)nicotinic acid]: the Ki is 0.086 µM.

For `Cc1nnn(-c2ccc(F)cc2)c1-c1cn(-c2ccc(C(=O)N3CC4(COC4)C3)cn2)cn1` [Example 39, (6-(4-(1-(4-Fluorophenyl)-4-methyl-1H-1,2,3-triazol-5-yl)-1H-imidazol-1-yl)pyridin-3-yl)(2-oxa-6-azaspiro[3.3]heptan-6-yl)methanone], the Ki was determined as 0.0358 µM.
